According to patent publication US7189747B2, “Method of treating noninflammatory cartilage damage” (Warner-Lambert Company, priority 2000, dated 2007):
Counter-ions that a name gives are not always drawn.

Assays:
[1] = system: Experimental Osteoarthritis in Rabbit; assay: EOA in Rabbit: histological grading of synovial membrane; type: in vivo; conditions: 150 mg/kg/po/day, 8 weeks after surgery, mean ± SEM
Description: (§1) Normal rabbits were anaesthetized and anteromedial incisions of the right knees performed. The anterior cruciate ligaments were visualized and sectioned. The wounds were closed and the animals were housed in individual cages, exercised, and fed ad libitum. Rabbits were given either vehicle (water), gabapentin, or 3-(1-aminomethyl-cyclohexylmethyl)-4h-[1,2,4]oxadiazol-5-one hydrochloride (10 rabbits per group). Each group was dosed three times per day with the gabapentin group receiving 100-mg/kg/dose and the 3-(1-aminomethyl-cyclohexylmethyl)-4h-[1,2,4]oxadiazol-5-one hydrochloride group receiving 50-mg/kg/dose. The rabbits were euthanized 8 weeks after surgery and the proximal end of the tibia and the distal end of the femur were removed from each animal.
Representative specimens of synovial membrane from the medial and lateral knee compartments were dissected from underlying tissues. The specimens were fixed, embedded, and sectioned (5 um) as above, and stained with hematoxylin-eosin. For each compartment, two synovial membrane specimens were examined for scoring purposes and the highest score from each compartment was retained. The average was calculated and considered as a unit for the whole knee. The severity of synovitis was graded on a scale of 0 to 10 by two independent observers, adding the scores of 3 histologic criteria: synovial lining cell hyperplasia (scale 0–2); villous hyperplasia (scale 0–3); and degree of cellular infiltration by mononuclear and polymorphonuclear cells (scale 0–5): 0 indicates normal structure.
(§2) Mean values and SEM was calculated and statistical analysis was done using the Mann-Whitney U-test.

[2] = system: Experimental Osteoarthritis in Rabbit; assay: EOA in Rabbit: macroscopic grading of cartilage lesions; type: in vivo
Description: as §1
The cartilage changes on the femoral condyles and tibial plateaus were graded separately under a dissecting microscope (Stereozoom, Bausch & Lomb, Rochester, N.Y.). The depth of erosion was graded on a scale of 0 to 4 as follows: grade 0=normal surface; Grade 1=minimal fibrillation or a slight yellowish discoloration of the surface; Grade 2=erosion extending into superficial or middle layers only; Grade 3=erosion extending into deep layers; Grade 4=erosion extending to subchondral bone. The surface area changes was measured and expressed in mm^2. Representative specimens will also be used for histologic grading (see below).
as §2

[3] = system: Monosodium Iodoacetate-Induced Osteoarthritis in Rat; assay: MIA Rat: hind-paw weight distribution; type: in vivo; conditions: for % Inhibition (of cartilage damage, hind-paw weight distribution): 14 days, Day 14; for preventing or treating cartilage damage (conclusion from Table 5): MIA Rat, doses and routes of Table 5
Excerpt: One end result of the induction of osteoarthritis in this model, as determined by histologic analysis, is the development of an osteoarthritic condition within the affected joint, as characterized by the loss of Toluidine blue staining and formation of osteophytes. Associated with the histologic changes is a concentration-dependent degradation of joint cartilage, as evidenced by affects on hind-paw weight distribution of the limb containing the affected joint, the presence of increased amounts of proteoglycan or hydroxyproline in the joint upon biochemical analysis, or histopathological analysis of the osteoarthritic lesions.
In the MIA Rat model on Day 0, the hind-paw weight differential between the right arthritic joint and the left healthy joint of male Wistar rats (150 g) were determined with an incapacitance tester, model 2KG (Linton Instrumentation, Norfolk, United Kingdom). The incapacitance tester has a chamber on top with an outwardly sloping front wall that supports a rat's front limbs, and two weight sensing pads, one for each hind paw, that facilitates this determination. Then the rats were anesthetized with isofluorine, and the right, hind leg knee joint was injected with 1.0 mg of mono-iodoacetate (“MIA”) through the infrapatellar ligament. […] The rats were further administered either a GABA analog or vehicle (in the instant case, water) daily for 14 days. The GABA analog was typically administered at a dose of 30 mg of GABA analog per kilogram of rat per day (30 mg/kg/day), but may be administered at other doses such as, for example, 10 mg/kg/day, 60 mg/kg/day, or 100 mg/kg/day according to the requirements of the compound being studied. It is well within the level of ordinary skill in the pharmaceutical arts to determine a proper dosage of a GABA analog in this model. In the instant experiment, administration of the GABA analog was optionally by oral administration or intravenous administration via an osmotic pump. After 7 and 14 days, the hind-paw weight distribution was again determined. […] Percent inhibition of cartilage damage was calculated as the percent change in hind-paw weight distribution for treated animals versus control animals:
[formula] wherein: ΔWC is the hind-paw weight differential between the healthy left limb and the arthritic limb of the control animal administered vehicle alone, as measured on Day 14; and • ΔWG is the hind-paw weight differential between the healthy left limb and the arthritic limb of the animal administered a GABA analog, as measured on Day 14.
The results of the hind-paw weight distribution data are shown below in Table 5 in the column labelled “% Inhibition”.

[4] = system: Experimental Osteoarthritis in Rabbit; assay: EOA in Rabbit: histologic grading of cartilage lesions (Mankin scale); type: in vivo; conditions: for Cells (0–3) / Safranin-O Staining (0–4) / Structure (0–6) / Total (0–13): 150 mg/kg/po/day, 8 weeks after surgery, mean ± SEM
Description: as §1
Histologic evaluation was performed on sagittal sections of cartilage from the lesional areas of the femoral condyle and tibial plateau. Serial sections (5 um) were prepared and stained with safranin-O. The severity of OA lesions was graded on a scale of 0–14 by two independent observers using the histologic-histochemical scale of Mankin et al. This scale evaluates the severity of OA lesions based on the loss of safranin-O staining (scale 0–4), cellular changes (scale 0–3), invasion of tidemark by blood vessels (scale 0–1) and structural changes (scale 0–6). On this latter scale, 0 indicates normal cartilage structure and 6 indicates erosion of the cartilage down to the subchondral bone. The scoring system was based on the most severe histologic changes in the multiple sections.
as §2

[5] = system: Monosodium Iodoacetate-Induced Osteoarthritis in Rat; assay: MIA Rat: free proteoglycan in knee joint; type: in vivo; conditions: for treatment of cartilage damage (conclusion from Table 6): MIA Rat, osmotic pump 30 mg/kg/day; for Proteoglycan loss (%) / Inhibition of Proteoglycan loss (%): intravenously by osmotic pump 30 mg/kg/day; for Proteoglycan loss (%): osteoarthritic right knee joint vs contralateral left knee joint, vehicle 18.10 (1b) and 31.90 (2b); for Inhibition of Proteoglycan loss (%): versus vehicle (water)
Excerpt: The incapacitance tester has a chamber on top with an outwardly sloping front wall that supports a rat's front limbs, and two weight sensing pads, one for each hind paw, that facilitates this determination. […] The rats were further administered either a GABA analog or vehicle (in the instant case, water) daily for 14 days. […] It is well within the level of ordinary skill in the pharmaceutical arts to determine a proper dosage of a GABA analog in this model. In the instant experiment, administration of the GABA analog was optionally by oral administration or intravenous administration via an osmotic pump. After 7 and 14 days, the hind-paw weight distribution was again determined. […] Percent inhibition of cartilage damage was calculated as the percent change in hind-paw weight distribution for treated animals versus control animals: In order to measure biochemical or histopathological end points in the MIA Rat model, some of the animals in the above study were then sacrificed, and the amounts of free proteoglycan in both the osteoarthritic right knee joint and the contralateral left knee joint were determined by biochemical analysis. The amount of free proteoglycan in the contralateral left knee joint provides a baseline value for the amount of free proteoglycan in a healthy joint. The amount of proteoglycan in the osteoarthritic right knee joint in animals further administered a GABA analog, and the amount of proteoglycan in the osteoarthritic right knee joint in animals further administered vehicle alone, were independently compared to the amount of proteoglycan in the contralateral left knee joint. The amounts of proteoglycan lost in the osteoarthritic right knee joints were expressed as percent loss of proteoglycan compared to the contralateral left knee joint control. The results are shown below in Table 6 in the column labelled, “Proteoglycan loss (%)”. Also shown in Table 6, in the column labelled “Inhibition of Proteoglycan loss (%)”, is the percent inhibition of proteoglycan loss, which was calculated as {[(proteoglycan loss from joint (%) with vehicle)−(proteoglycan loss from joint with GABA analog)]÷(proteoglycan loss from joint (%) with vehicle)}×100.

[6] = 50 mg/kg/dose three times per day, 8 weeks, Table 1
[7] = 30 mg/kg oral, twice daily dosing of the indicated dose
[8] = daily dose 30 mg/kg, osmotic pump

For `CS(=O)(=O)NCCC1(CN)CCCCC1.Cl`, the melting point was 196 to 199 °C.
With `CC(C)CC(CN)Cc1noc(=S)[nH]1.Cl` (stereo not drawn) the melting point was 183 to 185 °C.
`Cl.NCC1(Cc2noc(=S)[nH]2)CCCCC1` gave a melting point of 210 to 212 °C.
Work on `CCCC(C(C)C)C(CN)CC(=O)O` (stereo not drawn) (as salt: HCl) yielded a melting point of 160 to 170 °C.
With `Cl.NCC1(Cc2noc(=O)[nH]2)CCCCC1` [3-(1-Aminomethyl-cyclohexylmethyl)-4H-[1,2,4]oxadiazol-5-one; hydrochloride] the “Cellular Infiltration (0–5 Scale)” value [1] was 0.35 ± 0.2, the “Synovial Lining (0–2 Scale)” value [1] was 0.85 ± 0.1 and the “Villous Hyperplasia (0–3 Scale)” value ([1]; p < 0.001) was 1.15 ± 0.1. For the same compound, the “Total (0–10)” value ([1]; p < 0.002) was 2.35 ± 0.3, the “damage score for both the femoral condyles and the tibial plateaus (in words)” value [2, 6] was “reduced” and the “lesion size on the plateaus (in words)” value [2, 6] was “reduced”. For the same compound, the “Femoral Condyles Size” value ([2]; 150 mg/kg/po/day (50 mg/kg/dose three times per day), 8 weeks after surgery, mean ± SEM) was 6.93 ± 3.1 mm^2, the “Tibial Plateaus Size” value ([2]; 150 mg/kg/po/day (50 mg/kg/dose three times per day), 8 weeks after surgery, mean ± SEM, p < 0.002) was 1.95 ± 0.8 mm^2 and the “Tibial Plateaus Grade (0–4)” value ([2]; 150 mg/kg/po/day (50 mg/kg/dose three times per day), 8 weeks after surgery, mean ± SEM, p < 0.02) was 0.55 ± 0.2. For the same compound, the “Femoral Condyles Grade (0–4)” value ([2]; 150 mg/kg/po/day (50 mg/kg/dose three times per day), 8 weeks after surgery, mean ± SEM, p < 0.04) was 0.67 ± 0.2, the “treatment of cartilage damage (conclusion from the EOA in Rabbit study)” value ([2]; gabapentin 100 mg/kg/dose, test compound 50 mg/kg/dose, three times per day, 8 weeks) was “effective” and the “% Inhibition (of cartilage damage, hind-paw weight distribution)” value [3, 7] was 47 ± 20%. The “preventing or treating cartilage damage (conclusion from Table 5)” value (from here on “preventing or treating cartilage damage”) [3] was “effective”, the “% Inhibition (of cartilage damage, hind-paw weight distribution)” value [3, 8] was 46 ± 10% and the “histologic damage (in words)” value ([4]; 50 mg/kg/dose three times per day, 8 weeks, text on Table 2 and 3) was “reduced histologic damage”. The “Cells (0–3)” value ([4]; Femoral Condyles) was 1.60 ± 0.2, the “Safranin-O Staining (0–4)” value ([4]; Femoral Condyles) was 1.25 ± 0.3 and the “Structure (0–6)” value ([4]; Femoral Condyles, p < 0.01) was 1.35 ± 0.3. The “Total (0–13)” value ([4]; Femoral Condyles, p < 0.04) was 4.20 ± 0.6, the “Cells (0–3)” value ([4]; Tibial Plateaus) was 0.60 ± 0.2 and the “Safranin-O Staining (0–4)” value ([4]; Tibial Plateaus) was 0.18 ± 0.1. For the same compound, the “Structure (0–6)” value ([4]; Tibial Plateaus) was 0.90 ± 0.2, the “Total (0–13)” value ([4]; Tibial Plateaus, p > 0.02) was 1.77 ± 0.4 and the “treatment of cartilage damage (conclusion from Table 6)” value [5] was “effective”. The “Proteoglycan loss (%)” value [5] was 6.70% and the “Inhibition of Proteoglycan loss (%)” value [5] was 63%.
With `Cl.NCC1(Cc2noc(=O)[nH]2)CCCCCC1` [3-(1-aminomethyl-cycloheptylmethyl)-4H-[1,2,4]oxadiazol-5-one hydrochloride] the “preventing or treating cartilage damage” value [3] was “effective” and the “% Inhibition (of cartilage damage, hind-paw weight distribution)” value [3, 8] was 62 ± 8%.
With `CC(C)CC(CN)Cc1noc(=O)[nH]1.Cl` (stereo not drawn) [3-(2-Aminomethyl-4-methyl-pentyl)-4H-[1,2,4]oxadiazole-5-one; HCl] the “preventing or treating cartilage damage” value [3] was “effective” and the “% Inhibition (of cartilage damage, hind-paw weight distribution)” value [3, 8] was 35 ± 8%.
For `Cl.NCC(c1noc(=O)[nH]1)C1CCCC1` (stereo not drawn) [3-(2-amino-1-cyclopentyl-ethyl)-4H-[1,2,4]oxadiazol-5-one hydrochloride], the “preventing or treating cartilage damage” value [3] was “effective” and the “% Inhibition (of cartilage damage, hind-paw weight distribution)” value [3, 8] was 104%.
For `Cl.NCC1(CC(=O)O)CC2CCC2C1` (stereo not drawn) [(1α,3α,5α)(3-Aminomethyl-bicyclo[3.2.0]hept-3-yl)-acetic acid hydrochloride], the “% Inhibition (of cartilage damage, hind-paw weight distribution)” value [3, 8] was −3 ± 34%, the “treatment of cartilage damage (conclusion from Table 6)” value [5] was “effective” and the “Proteoglycan loss (%)” value [5] was 16.60%. For the same compound, the “Inhibition of Proteoglycan loss (%)” value [5] was 48%.
With `NCC1(Cc2nnn[nH]2)CCCCCC1` [C-[1-(1H-tetrazol-5-ylmethyl)-cycloheptyl]-methylamine] the “% Inhibition (of cartilage damage, hind-paw weight distribution)” value [3, 8] was −33 ± 17%.
With `CC(C)C[C@H](CN)CC(=O)O` [Pregabalin, (S)-3-(aminomethyl)-5-methylhexanoic acid, reference compound] the “% Inhibition (of cartilage damage, hind-paw weight distribution)” value [3, 7] was −3 ± 12%.
